Where “and” joins values, the source holds several entries; their conditions need not be identical. Equal values may be shown once. Entries after “also recorded” stand apart in the source; their conditions may differ.
Columns and labels:
serum triglycerides = experiment: influence on the serum triglycerides of repeated application; type: in vivo, rats male (Wistar); conditions: for serum triglycerides: individual animals, starve for 5 hours, 100 mg/kg; for serum triglycerides / serum triglycerides, mean (x10): 100 mg/kg x/day p.o.; for serum triglycerides, mean (x10): control 133.6
Experimental: Influence on the serum triglycerides of repeated application of
(§1) 100 mg/kg x/day p.o. rats male, starve for 5 hours, ether narcosis, heart
(§2) last application 1 hour before killing (cf. FIG. 3)

mice = experiment: LD50 in mice; type: in vivo
serum cholesterol = experiment: influence on the serum cholesterol of repeated application; type: in vivo, rats male (Wistar); conditions: for serum cholesterol: individual animals, starve for 5 hours, 100 mg/kg; for serum cholesterol / serum cholesterol, mean (x10): 100 mg/kg x/day p.o.; for serum cholesterol, mean (x10): control 71.28
Experimental: Influence on the serum cholesterol of repeated application of
as §1, §2

serum triglycerides (TG) = experiment: influence on the serum triglycerides (TG) in normal animals; type: in vivo, Rats (Wistar); conditions: for TG: starve for 5 hours; for TG, mean (x): 1 hour
Experimental: Rats, starve for 5 hours
40 mg/kg body weight of active principle according to
the invention, oral by esophagus probe 1 hour before
12 mg/kg body weight of 3-methylpyrazole-5-carboxylic
acid, equim. dosage, 1 hour before removal of blood
Dose: 10 mg/kg body weight of active principle according to the
invention, oral by esophagus probe 1 hour before blood removal
Dose: 3 mg/kg body weight of 3-methylpyrazole-5-carboxylic acid,
equim. dosage, oral by esophagus probe 1 hour before

free fatty acids (FFS) = experiment: influence on the free fatty acids (FFS) in starved (hyperlipacidaemic) animals, hunger lipolysis; type: in vivo, rats (Wistar); conditions: 1 hour
Experimental: Investigations on a total of 260 Wistarrats were conducted with 7-[3-(N-methyl-N-2-hydroxyethyl)-amino-2-hydroxypropyl]-1,3-dimethylxanthine-3-methylpyrazole-5-carboxylate.
Examination of the influence of 7-[3-(N-methyl-N-2-hydroxy-
ethyl)-amino-2-hydroxypropyl]-1,3-dimethylxanthine-3-methyl-
pyrazole-5-carboxylate on the serum fatty acids (FFS) of
Male Rats, starve for 17 hours
Dose: 100 mg/kg body weight, oral by esophagus probe,
Blood removal: 1 hour after application
pyrazole-5-carboxylate on the free fatty acids (FFS) in
starved animals 1 hour after application
Comparative examinations of the influence of 7-[3-(N-methyl-
carboxylic acid on the free fatty acids (FFS) in starved
animals 1 hour after application
pyrazole-5-carboxylic acid on the free fatty acids (FFS)
in starved animals 6 hours after application

[1] = 100 mg/kg over 4 days, result in words

`CN(CCO)CC(O)Cn1cnc2c1c(=O)n(C)c(=O)n2C.Cc1cc(C(=O)O)[nH]n1` (stereo not drawn) [7-[3-(N-methyl-N-2-hydroxyethyl)-amino-2-hydroxypropyl]-1,3-dimethylxanthine-3-methylpyrazole-5-carboxylate] was tested, and the “effect on the serum triglycerides on repeated application” value (serum triglycerides; [1]) was “uniform and, in some cases, even increased effect; also recorded: still significantly reduced”, the serum triglycerides (serum triglycerides; 1st day) was 85.9 mg% and 57.3 mg% and 118.6 mg% and 104.5 mg% and 65.9 mg% and 88.8 mg% and the “serum triglycerides, mean (x10)” value (serum triglycerides; 1st day) was 82.6 mg%. The serum triglycerides (serum triglycerides; 2nd day) was 38.7 mg% and 61.6 mg% and 54.4 mg% and 63.0 mg% and 95.9 mg% and 87.3 mg% and 127.4 mg% and 74.4 mg% and 57.2 mg% and 88.7 mg%, the “serum triglycerides, mean (x10)” value (serum triglycerides; 2nd day) was 74.8 mg% and the serum triglycerides (serum triglycerides; 3rd day) was 60.1 mg% and 63.0 mg% and 90.2 mg% and 108.8 mg% and 50.1 mg% and 97.4 mg% and 80.2 mg% and 105.9 mg% and 58.7 mg%. The “serum triglycerides, mean (x10)” value (serum triglycerides; 3rd day) was 77.4 mg%, the serum triglycerides (serum triglycerides; 4th day) was 30.1 mg% and 73.0 mg% and 67.0 mg% and 64.4 mg% and 60.1 mg% and 44.4 mg% and 58.7 mg% and 101.7 mg% and 67.3 mg% and the “serum triglycerides, mean (x10)” value (serum triglycerides; 4th day) was 61.1 mg%. The LD50 (mice; i.v.) was 540 mg/kg, the LD50 (mice; per oral) was “more than 1000 mg/kg” and the “effect on the serum cholesterol on repeated application” value (serum cholesterol; [1]) was “uniform and, in some cases, even increased effect; also recorded: still significantly reduced”. The serum cholesterol (serum cholesterol; 1st day) was 71.70 mg % and 49.06 mg % and 51.89 mg % and 67.92 mg % and 68.87 mg % and 52.83 mg % and 50.94 mg %, the “serum cholesterol, mean (x10)” value (serum cholesterol; 1st day) was 58.68 mg % and the serum cholesterol (serum cholesterol; 2nd day) was 37.4 mg % and 54.2 mg % and 55.2 mg % and 69.9 mg % and 65.0 mg % and 69.1 mg % and 39.4 mg % and 47.3 mg % and 49.3 mg % and 51.2 mg %. For the same molecule, the “serum cholesterol, mean (x10)” value (serum cholesterol; 2nd day) was 53.8 mg %, the serum cholesterol (serum cholesterol; 3rd day) was 52.36 mg % and 71.24 mg % and 67.81 mg % and 50.64 mg % and 57.51 mg % and 64.38 mg % and 62.66 mg % and 68.67 mg % and 60.94 mg % and the “serum cholesterol, mean (x10)” value (serum cholesterol; 3rd day) was 62.75 mg %. For the same molecule, the serum cholesterol (serum cholesterol; 4th day) was 42.98 mg % and 37.19 mg % and 52.07 mg % and 64.46 mg % and 80.99 mg % and 47.11 mg % and 65.29 mg % and 58.68 mg % and 50.41 mg % and 43.80 mg %, the “serum cholesterol, mean (x10)” value (serum cholesterol; 4th day) was 54.30 mg % and the TG (serum triglycerides (TG); Table 7, individual animals, 40 mg/kg oral 1 hour before removal of blood, 40 mg/kg) was 71.6 mg % and 22.9 mg % and 15.8 mg % and 18.6 mg % and 41.5 mg % and 40.1 mg % and 58.7 mg % and 32.9 mg % and 45.8 mg %. For the same molecule, the “TG, mean (x)” value (serum triglycerides (TG); Table 7, mean, 40 mg/kg oral, control x = 66.4, p<0.0027>Ko) was 36.3 mg %, the TG (serum triglycerides (TG); Table 8, individual animals, 10 mg/kg oral 1 hour before blood removal, 10 mg/kg) was 48.7 mg % and 54.4 mg % and 83.1 mg % and 55.8 mg % and 74.4 mg % and 81.6 mg % and 51.5 mg % and 40.1 mg % and the “TG, mean (x)” value (serum triglycerides (TG); Table 8, mean, 10 mg/kg oral, control x = 86.3, p<0.05>Ko) was 59.8 mg %. The “serum triglyceride level of normal animals” value (serum triglycerides (TG); doses down to 10 mg/kg, result in words) was “significantly reduces the serum triglyceride level”, the FFS (free fatty acids (FFS); Table 2, individual animals, male rats, starve for 17 hours, 100 mg/kg oral, 100 mg/kg) was 0.29 μval/ml and 0.34 μval/ml and 0.54 μval/ml and 0.47 μval/ml and 0.67 μval/ml and 0.46 μval/ml and 0.44 μval/ml and 0.43 μval/ml and 0.39 μval/ml and 0.48 μval/ml and 0.51 μval/ml and 0.45 μval/ml and the “FFS, mean (φ)” value (free fatty acids (FFS); Table 2, mean, male rats, starve for 17 hours, 100 mg/kg oral, control φ 0.91, p<0.001) was 0.46 μval/ml. It also gave an FFS (free fatty acids (FFS); Table 4 dose-effect, starved animals, 2.0 mg/kg, n 10, control 0.87, ***p<0.001) of 0.51 μval/ml, an FFS (free fatty acids (FFS); Table 4 dose-effect, starved animals, 2.5 mg/kg, n 13, control 0.86) of 0.50 μval/ml and an FFS (free fatty acids (FFS); Table 4 dose-effect, starved animals, 5 mg/kg, n 5, control 0.83) of 0.43 μval/ml.

— patent US3980646A, “3-Methylpyrazole-5-carboxylates and medicaments containing these compounds” (Wulfing; Johann A., priority 1974, dated 1976)
